IC50 data for 25 molecules are collected here from ChEMBL document CHEMBL4831557, “Parthenolide Derivatives as PKM2 Activators Showing Potential in Colorectal Cancer” (J Med Chem, 2021).

Some results are limits rather than exact numbers.

As a reminder, the IC50 is the midpoint of a concentration-inhibition curve.

Test [1] has as its system MDA-MB-231. Description: Cytotoxicity against human MDA-MB-231 cells assessed as reduction in cell viability incubated for 48 hrs by MTT assay. The settings on record: MDA-MB-231, 48 h. The format is functional, cell-based. (Formazan colour is commonly taken as a measure of viable cells.)
Test [2] has as its system SW480. Nature of the test: Cytotoxicity against human SW480 cells assessed as reduction in cell viability incubated for 48 hrs by MTT assay. Format: functional, cell-based. The settings on record: SW480, 48 h.
Test [3] deals with HCT-116. Description: Cytotoxicity against human HCT-116 cells assessed as reduction in cell viability incubated for 48 hrs by MTT assay. Format: functional, cell-based. The settings on record: HCT-116, 48 h.
The subject of test [4] is U2OS. Nature of the test: Cytotoxicity against human U2OS cells assessed as reduction in cell viability incubated for 48 hrs by MTT assay. The format is functional, cell-based.
In test [5] the test system is A549. Description: cells. The conditions noted are these: Homo sapiens, A549, 48 h.
The subject of test [6] is HT-29. Nature of the test: Cytotoxicity against human HT-29 cells assessed as reduction in cell viability incubated for 48 hrs by MTT assay. The format is functional, cell-based. The settings on record: HT-29, 48 h.
In test [7] the test system is HepG2. Nature of the test: Cytotoxicity against human HepG2 cells assessed as reduction in cell viability incubated for 48 hrs by MTT assay. The conditions noted are these: HepG2, 48 h. Format: functional, cell-based.

Turning to `Cn1c2cc([S+](C)[O-])sc2c2cnn(Cc3cccc(N)c3)c(=O)c21` (stereo not given), the IC50 in test [1] is more than 100 µM; in test [2] it was 93 µM; in test [3] it was 89.9 µM; in test [4] it was more than 100 µM; in test [5], more than 100 µM; in test [6], more than 100 µM. The IC50 in test [7] is more than 100 µM.
Turning to `C=C1C(=O)O[C@H]2[C@H]1CC/C(COC(=O)c1ccc3ncncc3c1)=C/CC[C@@]1(C)O[C@@H]21`, the half-maximal inhibitory concentration (IC50) is 9.01 µM in test [1]; 1.9 µM in test [2]; 6.19 µM in test [3]; 13.9 µM in test [4]; 17.4 µM in test [5]; 5.82 µM in test [6]. The 50% inhibitory concentration (IC50) in test [7] stood at 11.8 µM.
Regarding `C=C1C(=O)O[C@H]2[C@H]1CC/C(COC(=O)c1cccc3cccnc13)=C/CC[C@@]1(C)O[C@@H]21`, the IC50 came out at 2.2 µM in test [1]; 0.49 µM in test [2]; 4.12 µM in test [3]; 3.54 µM in test [4]; 2.65 µM in test [5]; 2.65 µM in test [6]. Moreover, in test [7], the IC50 came to 8.76 µM.
Turning to `C=C1C(=O)O[C@H]2[C@H]1CC/C(CO)=C\CC[C@@]1(C)O[C@@H]21`, the IC50 in test [1] was determined as 6.01 µM; in test [2], 5.87 µM; in test [3] it was 7.5 µM; in test [4], 10.7 µM; in test [5], 7.49 µM; in test [6] it was 6.95 µM. Besides, the IC50 in test [7] was 12 µM.
Consider `C=C1C(=O)O[C@H]2[C@H]1CC/C(COC(=O)c1n[nH]c(=O)c3ccccc13)=C/CC[C@@]1(C)O[C@@H]21`, for which the IC50 was found to be 6.26 µM in test [1]; 2.43 µM in test [2]; 6.86 µM in test [3]; 7.81 µM in test [4]; 4.52 µM in test [5]; 6.26 µM in test [6]. Further, in test [7], the IC50 stood at 9.63 µM.
On to `C=C1C(=O)O[C@H]2[C@H]1CC[C@]1(C)O[C@@H]1CC[C@@]1(C)O[C@@H]21`, for which the IC50 in test [1] came out at 15.2 µM; in test [2] it was 4.3 µM; in test [3], 13.4 µM; in test [4], 13 µM; in test [5] it was 28.6 µM; in test [6], 11.4 µM. For the same molecule, in test [7], the IC50 is 23.5 µM.
Turning to `C=C1C(=O)O[C@H]2[C@H]1CC/C(C(=O)CN1CCN(C(=O)c3ccc4ccccc4n3)CC1)=C/CC[C@@]1(C)O[C@@H]21`, the IC50 was 8.37 µM in test [1]; 3.3 µM in test [2]; 5.27 µM in test [3]; 13 µM in test [4]; 14.8 µM in test [5]; 4.83 µM in test [6]. In addition, the IC50 in test [7] worked out at 7.75 µM.
On to `C=C1C(=O)O[C@H]2[C@H]1CC/C(COC(=O)CCc1nc3ccccc3[nH]c1=O)=C/CC[C@@]1(C)O[C@@H]21`, for which the IC50 in test [1] stood at 7.56 µM; in test [2], 1.74 µM; in test [3], 6.13 µM; in test [4], 6.99 µM; in test [5], 8.12 µM; in test [6], 5.66 µM. The IC50 in test [7] amounted to 14.2 µM.
With `C=C1C(=O)O[C@H]2[C@H]1CC/C(COC(=O)c1ccc3nc(O)ccc3c1)=C/CC[C@@]1(C)O[C@@H]21`, the IC50 in test [1] came out at 5.1 µM; in test [2], 0.73 µM; in test [3] it was 2.25 µM; in test [4], 7.62 µM; in test [5], 5.12 µM; in test [6] it was 1.72 µM. Also, in test [7], the IC50 came out at 10.6 µM.
Take `C=C1C(=O)O[C@H]2[C@H]1CC/C(COC(=O)c1ccc3cccnc3c1)=C/CC[C@@]1(C)O[C@@H]21`: the IC50 in test [1] was found to be 1.75 µM; in test [2], 0.33 µM; in test [3], 3.13 µM; in test [4] it was 1.3 µM; in test [5] it was 2.95 µM; in test [6], 2.8 µM. For the same molecule, the IC50 in test [7] is 9.84 µM.
Regarding `C=C1C(=O)O[C@H]2[C@H]1CC/C(COC(=O)c1cnnc3ccccc13)=C/CC[C@@]1(C)O[C@@H]21`, the concentration for half-maximal inhibition (IC50) was 3.68 µM in test [1]; 1.33 µM in test [2]; 3.78 µM in test [3]; 4.01 µM in test [4]; 2.29 µM in test [5]; 4.27 µM in test [6]. Also, the IC50 in test [7] was 12.5 µM.
Regarding `C=C1C(=O)O[C@H]2[C@H]1CC/C(COC(=O)c1ccc3ccccc3n1)=C/CC[C@@]1(C)O[C@@H]21`, the concentration for half-maximal inhibition (IC50) in test [1] was 2.14 µM; in test [2], 1.2 µM; in test [3], 2.97 µM; in test [4], 2.22 µM; in test [5], 2.95 µM; in test [6] it was 2.68 µM. Besides, in test [7], the IC50 was 8.84 µM.
In the case of `C/C1=C\CC[C@@]2(C)O[C@H]2[C@H]2OC(=O)/C(=C\c3ccc4ncncc4c3)[C@@H]2CC1`, the half-maximal inhibitory concentration (IC50) was more than 100 µM in test [1]; 51.6 µM in test [2]; 87.7 µM in test [3]; 72 µM in test [4]; 40.2 µM in test [5]; more than 100 µM in test [6]. Also, the IC50 in test [7] was more than 100 µM.
Take `C=C1C(=O)O[C@H]2[C@H]1CC/C(C(=O)Oc1ccc3nccc(Cl)c3c1)=C/CC[C@@]1(C)O[C@@H]21`: the IC50 in test [1] is 2.25 µM; in test [2], 0.59 µM; in test [3] it was 1.29 µM; in test [4] it was 2.21 µM; in test [5] it was 2.74 µM; in test [6], 1.22 µM. The IC50 in test [7] came to 4.03 µM.
As to `C=C1C(=O)O[C@H]2[C@H]1CC/C(COC(=O)c1ccc3ccccc3c1)=C/CC[C@@]1(C)O[C@@H]21`, the IC50 stood at 3.34 µM in test [1]; 2.25 µM in test [2]; 3.05 µM in test [3]; 3.58 µM in test [4]; 3.49 µM in test [5]; 2.8 µM in test [6]. Besides, the IC50 in test [7] worked out at 8.15 µM.
`CO[C@@]12[C@H](COC(N)=O)C3=C(C(=O)C(C)=C(N)C3=O)N1C[C@@H]1N[C@@H]12` [MITOMYCIN]: the IC50 stood at 2.89 µM in test [1]; 0.79 µM in test [2]; 0.55 µM in test [3]; 8.45 µM in test [4]; 2.75 µM in test [5]; 0.44 µM in test [6]. Further, in test [7], the IC50 was 2.27 µM.
Take `C/C1=C\CC[C@@]2(C)O[C@H]2[C@H]2OC(=O)C(CN3CCN(C(=O)c4ccc5ccccc5n4)CC3)[C@@H]2CC1` (stereo not given in full): the IC50 in test [1] was 87 µM; in test [2] it was 23.1 µM; in test [3], 64.3 µM; in test [4], 23.5 µM; in test [5], 60.1 µM; in test [6], 54.4 µM. Further, in test [7], the IC50 is 69.5 µM.
In the case of `C=C1C(=O)O[C@H]2[C@H]1CC/C(C(=O)CN1CCN(C(=O)c3ccc4ccccc4n3)CC1C)=C/CC[C@@]1(C)O[C@@H]21` (stereo not given in full), the half-inhibitory concentration (IC50) in test [1] came out at 8.67 µM; in test [2], 8.64 µM; in test [3], 6.89 µM; in test [4] it was 21.7 µM; in test [5], 14.2 µM; in test [6], 6.34 µM. In addition, the IC50 in test [7] amounted to 14 µM.
Turning to `C=C1C(=O)O[C@H]2[C@H]1CC/C(COC(=O)Cc1n[nH]c(=O)c3ccccc13)=C/CC[C@@]1(C)O[C@@H]21`, the IC50 in test [1] came out at 5.49 µM; in test [2], 2.28 µM; in test [3] it was 2.87 µM; in test [4] it was 8.53 µM; in test [5], 5.79 µM; in test [6], 2.56 µM. The IC50 in test [7] came out at 8.44 µM.
Consider `C=C1C(=O)O[C@H]2[C@H]1CC/C(COC(=O)c1ccc3cnccc3c1)=C/CC[C@@]1(C)O[C@@H]21`, for which the IC50 came out at 2.27 µM in test [1]; 1.33 µM in test [2]; 2.7 µM in test [3]; 2.58 µM in test [4]; 2.45 µM in test [5]; 2.43 µM in test [6]. In addition, the IC50 in test [7] turned out to be 9.52 µM.
`C/C1=C\CC[C@@]2(C)O[C@H]2[C@H]2OC(=O)/C(=C\c3ccc4nccnc4c3)[C@@H]2CC1`: the IC50 in test [1] is 7.59 µM; in test [2], 3.51 µM; in test [3], 4.38 µM; in test [4], 3 µM; in test [5], 9.18 µM; in test [6], 358 µM. Further, the IC50 in test [7] is 13.8 µM.
Regarding `C=C1C(=O)O[C@H]2[C@H]1CC/C(COC(=O)Cc1ccc3ncccc3c1)=C/CC[C@@]1(C)O[C@@H]21`, the IC50 in test [1] came to 4.13 µM; in test [2] it was 1.8 µM; in test [3], 1.79 µM; in test [4], 6.62 µM; in test [5], 2.76 µM; in test [6], 1.4 µM. The IC50 in test [7] turned out to be 5.9 µM.
In the case of `C=C1C(=O)O[C@H]2[C@H]1C[C@H](OC(=O)c1ccc3ncccc3c1)C(C)=C1CC[C@@](C)(O)[C@@H]12`, the IC50 in test [1] amounted to 2.66 µM; in test [2] it was 0.4 µM; in test [3] it was 1.1 µM; in test [4], 2.36 µM; in test [5], 1.58 µM; in test [6], 1.46 µM. Further, the 50% inhibitory concentration (IC50) in test [7] was 4.53 µM.
With `C=C1C(=O)O[C@H]2[C@H]1CC/C(COC(=O)CCn1cnc3ccccc3c1=O)=C/CC[C@@]1(C)O[C@@H]21`, the IC50 in test [1] was determined as 8.37 µM; in test [2], 3.23 µM; in test [3], 5.71 µM; in test [4], 7.76 µM; in test [5], 8.63 µM; in test [6], 5.21 µM. Further, the IC50 in test [7] turned out to be 17.9 µM.
As to `C=C1C(=O)O[C@H]2[C@H]1CC/C(C(=O)CN1CCCN(C(=O)c3ccc4ccccc4n3)CC1)=C/CC[C@@]1(C)O[C@@H]21`, the IC50 worked out at 7.44 µM in test [1]; 3.13 µM in test [2]; 4.32 µM in test [3]; 10.6 µM in test [4]; 9.68 µM in test [5]; 4.31 µM in test [6]. The IC50 in test [7] turned out to be 5 µM.
